Measured values taken from patent US6602664B2 (priority 1998, dated 2003).
“And” between values parts separate entries of the source, which are not always exact repeats. Equal values may be shown once. Read-outs that look alike come from different tables or passages of the source.

How the values were obtained:
Type in all cases: cell-based
[1] = tested on: HIV-1 replication in human PBM cells; experiment: microbe, parasite or virus in culture
Procedure: Cells and viruses. […] Antimicrobial Agents Chemother 1992;36(11): 2423-2431.
Cell pellets were washed, centrifuged, lysed and the proviral DNA extracted as previously described. Cytotoxicity of the compounds was determined using the Promega Cell Titer 96 dye uptake assay (Madison, Wis.) in 1-2 day PHA-stimulated PBM cells after 5 days in culture. The median effective concentration (EC50) and inhibitory concentration (IC50) were derived from the computer-generated median effect plot of the dose-effect data, as described previously.

[2] = tested on: drug-resistant HIV-1 in PBMC; experiment: microbe, parasite or virus in culture; details: PBMC; for EC50: Human immunodeficiency virus 1, PBMC
[3] = tested on: drug-resistant HIV-1 in MT-2; experiment: microbe, parasite or virus in culture; details: for Fold-resistance: MT-2
[4] = tested on: drug-resistant HIV-1 in MT-4; experiment: microbe, parasite or virus in culture
[5] = tested on: drug-resistant HIV-1 in HeLa HT4-6C; experiment: microbe, parasite or virus in culture; details: for EC50: Human immunodeficiency virus 1, HeLa
[6] = tested on: recombinant HIV-1 virus isolates
Excerpt: The aim of the study was to determine the potency of the inhibitory effect of a new generation of NRTIs on Multi Drug Resistant isolates and to compare it with their effect on wild-type HIV-1 isolates. All recombinant viruses were taken from the VIRCO repository of phenotypically and genotypically characterized virus isolates. Hirsch et al. Antiretroviral Drug Resistance Testing in Adults with HIV Infection. JAMA; 1998: 79(24) 1984-1991. See also Pauwels et al. Comprehensive HIV drug Resistance monitoring using rapid, high-throughput phenotypic and genotypic assays with correlative data analysis. Antiviral Therapy, 1998: 3: 35 Abstract 51.
Phenotypic drug susceptibility determination of recombinant virus isolates is described in Hertogs et al. A Rapid Method for Simultaneous Detection of Phentypic Resistance to Inhibitors of Protease and Reverse Transcriptase in Recombinant HIV-1 Isolates from Patients Treated with Antiretroviral Drugs. Antimicrob. Agents Chemother. 1998; 42(2): 269-276. The basic principle of the Antivirogram® technology is the construction of chimeric HIV-1 strains composed of the protease (PR) and reverse transcriptase (RT) gene sequences which are isolated and amplified from patient viral RNA. Amplicons are subsequently transfected into CD4+T cells together with a standard laboratory isogenic (HXB2) HIV-1 DNA construct from which the PR/RT gene sequences were deleted. After homologous recombination, new viruses whose diversity reflects the original population amplified from the plasma are produced at high level from these cells.
The virus infectivity (CCID50) is determined by an end-point dilution method. The titer is calculated from the degree of infection, measured by the intensity of reporter-gene signal as generated by serial dilutions of the virus shock. The chimeric (clinical isolates and wild-type reference) viruses are then analyzed for their phenotypic sensitivity (i.e. susceptibility) to the different PR and RT-inhibitors in an automated reporter gene-based assay using serial dilutions of the compound. The standardisation of the Antivirogram®n assay allows for simultaneous testing of all clinically approved drugs in one 384-well microtiter plate. The experimental drugs are included in separate plates. Each plate contains multiple replicates of mock-infected wells, virus-infection control wells and blank (medium-only) well. All plates are tested in duplicate. 50% Inhibitory concentrations are calculated based on reporter signals obtained through optical reading of 384-well plates containing serial dilutions of compounds, a normalised quantity of virus and by taking into account all relevant control wells. Approval (or not) is done according to critical ranges and settings as described in the corresponding VIRCO Standard Operating Procedure.
A more detailed description of the protocol is as follows. Samples were stored frozen. […] To confirm the genotypic pattern, genotyping (ABI-sequencing) was performed after recombination and culture of the laboratory strains by analysis of cell viability, calculation of results (dose-response curves, IC50 values), and reporting of data.

[7] = Human immunodeficiency virus 1, PBMC, 144 h
[8] = HIV-1 (A012D:M41L?/D67N/K70R/T215F/K219Q)
[9] = clinical isolate (pre) prior to long-term ZDV monotherapy, row HIV-1 (A012D), read-out: Untreated EC50
[10] = clinical isolate HIV-1 (A012D:M41L?/D67N/K70R/T215F/K219Q), read-out: Selected Varient EC50

## Cc1cn([C@H]2C[C@H](N=[N+]=[N-])[C@@H](CO)O2)c(=O)[nH]c1=O [AZT, 3′-azido-3′-deoxythymidine]
[1]
  EC90: 0.021 µM and 0.014 µM
[1]; Human immunodeficiency virus 1, PBMC
  EC90: 0.013 µM
[1]; [7]
  inhibition at 0.1 µM: -12.9%
  inhibition at 1 µM: 67.6%
  inhibition at 10 µM: 83.2%
  inhibition at 100 µM: 98.2%
[2]; 1 (T215Y/M41L)
  Fold-resistance: 11
[2]; (M184V/T215Y)
  Fold-resistance: 5.8
[2]; [8]
  Fold-resistance: 240
[2]; HIV-1 (D67N/K70R/T215Y/K219Q)
  Fold-resistance: 9
[2]; HIV-1 (K65R)
  Fold-resistance: 2
[2]; HIV-1 (L74V)
  Fold-resistance: 0.8
[2]; HIV-1 (M184V)
  Fold-resistance: 0.8
[2]; HIV-1 (T215Y)
  Fold-resistance: 2.5
[2]; [9]
  EC50: 0.001 µM
[2]; [10]
  EC50: 0.24 µM
[2]; molecular clone 1 (T215Y/M41L), read-out: Selected Varient EC50
  EC50: 0.042 µM
[2]; molecular clone (M184V/T215Y), read-out: Selected Varient EC50
  EC50: 0.023 µM
[2]; molecular clone HIV-1 (D67N/K70R/T215Y/K219Q), read-out: Selected Varient EC50
  EC50: 0.036 µM
[2]; molecular clone HIV-1 (K65R), read-out: Selected Varient EC50
  EC50: 0.008 µM
[2]; molecular clone HIV-1 (L74V), read-out: Selected Varient EC50
  EC50: 0.003 µM
[2]; molecular clone HIV-1 (M184V), read-out: Selected Varient EC50
  EC50: 0.003 µM
[2]; molecular clone HIV-1 (T215Y), read-out: Selected Varient EC50
  EC50: 0.01 µM
[2]; parent strain HIV-1 (xxLAI), row 1 (T215Y/M41L), read-out: Untreated EC50
  EC50: 0.004 µM
[2]; parent strain HIV-1 (xxLAI), row (M184V/T215Y), read-out: Untreated EC50
  EC50: 0.004 µM
[2]; parent strain HIV-1 (xxLAI), row HIV-1 (D67N/K70R/T215Y/K219Q), read-out: Untreated EC50
  EC50: 0.004 µM
[2]; parent strain HIV-1 (xxLAI), row HIV-1 (K65R), read-out: Untreated EC50
  EC50: 0.004 µM
[2]; parent strain HIV-1 (xxLAI), row HIV-1 (L74V), read-out: Untreated EC50
  EC50: 0.004 µM
[2]; parent strain HIV-1 (xxLAI), row HIV-1 (M184V), read-out: Untreated EC50
  EC50: 0.004 µM
[2]; parent strain HIV-1 (xxLAI), row HIV-1 (T215Y), read-out: Untreated EC50
  EC50: 0.004 µM
[3]; HIV-1 (D67N/K70R/M184V/T215Y/K219Q)
  Fold-resistance: 5
[3]; HIV-1 (D67N/K70R/T215Y/K219Q)
  Fold-resistance: 33
[3]; HIV-1 (M41L/D67N/M184V/H208Y/L210W/R211K/L214F/T215Y)
  Fold-resistance: >550
[3]; HlV-1 (M184V)
  Fold-resistance: 1.5
[3]; Human immunodeficiency virus 1, MT2, read-out: Untreated EC50
  EC50: 0.006 µM
[4]; HIV-1 (A-161)
  Fold-resistance: 60
[4]; HIV-1 (C-246)
  Fold-resistance: 35
[4]; HIV-1 (G-68)
  Fold-resistance: 33
[4]; HIV-1 (R-102)
  Fold-resistance: 60
[4]; HIV-1 (X-78)
  Fold-resistance: 55
[4]; Human immunodeficiency virus 1, MT4, clinical isolate (pre) prior to long-term ZDV monotherapy, row HIV-1 (A-161), read-out: Untreated EC50
  EC50: 0.02 µM
[4]; Human immunodeficiency virus 1, MT4, clinical isolate (pre) prior to long-term ZDV monotherapy, row HIV-1 (C-246), read-out: Untreated EC50
  EC50: 0.02 µM
[4]; Human immunodeficiency virus 1, MT4, clinical isolate (pre) prior to long-term ZDV monotherapy, row HIV-1 (G-68), read-out: Untreated EC50
  EC50: 0.02 µM
[4]; Human immunodeficiency virus 1, MT4, clinical isolate (pre) prior to long-term ZDV monotherapy, row HIV-1 (R-102), read-out: Untreated EC50
  EC50: 0.02 µM
[4]; Human immunodeficiency virus 1, MT4, clinical isolate (pre) prior to long-term ZDV monotherapy, row HIV-1 (X-78), read-out: Untreated EC50
  EC50: 0.02 µM
[4]; Human immunodeficiency virus 1, MT4, clinical isolate HIV-1 (A-161), long-term ZDV monotherapy, read-out: Selected Varient EC50
  EC50: 1.2 µM
[4]; Human immunodeficiency virus 1, MT4, clinical isolate HIV-1 (C-246), long-term ZDV monotherapy, read-out: Selected Varient EC50
  EC50: 0.7 µM
[4]; Human immunodeficiency virus 1, MT4, clinical isolate HIV-1 (G-68), long-term ZDV monotherapy, read-out: Selected Varient EC50
  EC50: 0.65 µM
[4]; Human immunodeficiency virus 1, MT4, clinical isolate HIV-1 (R-102), long-term ZDV monotherapy, read-out: Selected Varient EC50
  EC50: 1.2 µM
[4]; Human immunodeficiency virus 1, MT4, clinical isolate HIV-1 (X-78), long-term ZDV monotherapy, read-out: Selected Varient EC50
  EC50: 1.1 µM
[5]; [8]
  Fold-resistance: 200
[5]; HIV-1 (A018C:D67N/K70R/T215Y/K219Q)
  Fold-resistance: 400
[5]; HIV-1 (A036DD:M41L/D67N/K70R/T215Y)
  Fold-resistance: 800
[5]; HIV-1 (P022C:M41L?/D67N/K70R/T215F/K219Q)
  Fold-resistance: 187
[5]; HIV-1 (P026B:M41L?/D67N/K70R/T215Y)
  Fold-resistance: 280
[5]; [9]
  EC50: 0.01 µM
[5]; clinical isolate (pre) prior to long-term ZDV monotherapy, row HIV-1 (A018C), read-out: Untreated EC50
  EC50: 0.01 µM
[5]; clinical isolate (pre) prior to long-term ZDV monotherapy, row HIV-1 (A036DD), read-out: Untreated EC50
  EC50: 0.007 µM
[5]; clinical isolate (pre) prior to long-term ZDV monotherapy, row HIV-1 (P022C), read-out: Untreated EC50
  EC50: 0.03 µM
[5]; clinical isolate (pre) prior to long-term ZDV monotherapy, row HIV-1 (P026B), read-out: Untreated EC50
  EC50: 0.01 µM
[5]; [10]
  EC50: 2 µM
[5]; clinical isolate HIV-1 (A018C:D67N/K70R/T215Y/K219Q), read-out: Selected Varient EC50
  EC50: 4 µM
[5]; clinical isolate HIV-1 (A036DD:M41L/D67N/K70R/T215Y), read-out: Selected Varient EC50
  EC50: 5.5 µM
[5]; clinical isolate HIV-1 (P022C:M41L?/D67N/K70R/T215F/K219Q), read-out: Selected Varient EC50
  EC50: 5.6 µM
[5]; clinical isolate HIV-1 (P026B:M41L?/D67N/K70R/T215Y), read-out: Selected Varient EC50
  EC50: 2.8 µM
[6]; RT genotype D67D/N, K70R, M184V, G333E
  fold Resistance: 0.9
[6]; RT genotype D67N, K70R, K219Q/K, 181C/Y
  fold Resistance: 12
[6]; RT genotype K70R, K219Q
  fold Resistance: 5
[6]; RT genotype M41L, D67N, K70R, K103N, L210W, T215Y, K219N/K
  fold Resistance: >36
[6]; RT genotype M41L, L210L, T215Y, Y181C/Y, M184M/V
  fold Resistance: >36
[6]; RT genotype M41L, L210W, T215Y
  fold Resistance: 24
[6]; RT genotype M41L, T69S-V-T, L210W, T215Y, G333E
  fold Resistance: >65
[6]; RT genotype M41L, T215Y, M184V
  fold Resistance: 5.5
[6]; RT genotype T69G, Q151M, M184V/M
  fold Resistance: >65
[6]; RT genotype T69I, K70R, Q151M, M184V
  fold Resistance: >65
[6]; RT genotype T69S-E, M184I, T215Y
  fold Resistance: >65
[6]; RT genotype T215Y
  fold Resistance: 13.5
[6]; recombinant isolate, RT genotype K70R
  fold Resistance: 0.7
